# Activity calls are given as the source filed them. The calls are words filed in the database; no cut-off is given here.
# Test system: Schizosaccharomyces pombe
# Experiment: Suppression of Cl-sensitive growth defect in Schizosaccharomyces pombe harboring h+leu1 ura4-D18 ppb1::ura4+ mutant assessed as colony formation at 100 uM measured after 3 days in presence of MgCl2 by disc filter paper
# Assay type: functional, organism-based
# Conditions: time 3.0 day
row,Structure (SMILES),Activity
1,CCC(=O)OC[C@H]1O[C@@H](OC[C@@H](O)[C@@H](O)[C@H](O)[C@H](O)CO)[C@@H](OC(=O)CC)[C@@H](OC(=O)CC)[C@@H]1OC(=O)CC,Active
2,CCCCCC(=O)OC[C@H]1O[C@@H](OC[C@@H](O)[C@@H](O)[C@H](O)[C@H](O)CO)[C@@H](O)[C@@H](OC(=O)CCCCC)[C@@H]1OC(=O)CCCCC,inactive
3,CCCCCCCC(=O)O[C@@H]1[C@H](OC[C@@H](O)[C@@H](O)[C@H](O)[C@H](O)CO)O[C@H](COC(=O)CCCCCC)[C@@H](OC(=O)CCCCCC)[C@@H]1OC(=O)CCCCCC,Active
4,CCCCCCCCCCC(=O)O[C@@H]1[C@H](OC[C@@H](O)[C@@H](O)[C@H](O)[C@H](O)CO)O[C@H](COC(=O)CCCCC)[C@@H](OC(=O)CCCCC)[C@@H]1OC(=O)CCCCC,Active
5,CCCC(=O)OC[C@H]1O[C@@H](OC[C@@H](O)[C@@H](O)[C@H](O)[C@H](O)CO)[C@@H](OC(=O)CCC)[C@@H](OC(=O)CCC)[C@@H]1OC(=O)CCC,Active
6,CCCCCC(=O)OC[C@H]1O[C@@H](OC[C@@H](O)[C@@H](O)[C@H](O)[C@H](O)CO)[C@@H](OC(=O)CCC)[C@@H](OC(=O)CCCCC)[C@@H]1OC(=O)CCCCC,Active
7,CCCCCCCC(=O)O[C@@H]1[C@H](OC[C@@H](O)[C@@H](O)[C@H](O)[C@H](O)CO)O[C@H](CO)[C@@H](O)[C@@H]1OC(=O)CCCCC,inactive
8,CCCCCCCCCCCCCC(=O)O[C@@H]1[C@H](OC[C@@H](O)[C@@H](O)[C@H](O)[C@H](O)CO)O[C@H](COC(=O)CCCCC)[C@@H](OC(=O)CCCCC)[C@@H]1OC(=O)CCCCC,Active
9,CCCCCC(=O)OC[C@H]1O[C@@H](OC[C@@H](O)[C@@H](O)[C@H](O)[C@H](O)CO)[C@@H](OC(=O)CC)[C@@H](OC(=O)CCCCC)[C@@H]1OC(=O)CCCCC,Active
10,CCCCCC(=O)OC[C@H]1O[C@@H](OC[C@@H](O)[C@@H](O)[C@H](O)[C@H](O)CO)[C@@H](OC(=O)CCCC)[C@@H](OC(=O)CCCCC)[C@@H]1OC(=O)CCCCC,Active
11,CCCCCCCCCCCC(=O)O[C@@H]1[C@H](OC[C@@H](O)[C@@H](O)[C@H](O)[C@H](O)CO)O[C@H](COC(=O)CCCCC)[C@@H](OC(=O)CCCCC)[C@@H]1OC(=O)CCCCC,Active
12,CCCCCCCCCC(=O)O[C@@H]1[C@H](OC[C@@H](O)[C@@H](O)[C@H](O)[C@H](O)CO)O[C@H](COC(=O)CCCCC)[C@@H](OC(=O)CCCCC)[C@@H]1OC(=O)CCCCC,Active
13,CCCCCCCC(=O)O[C@@H]1[C@H](OC[C@@H](O)[C@@H](O)[C@H](O)[C@H](O)CO)O[C@H](COC(=O)CCCCC)[C@@H](OC(=O)CCCCC)[C@@H]1OC(=O)CCCCC,Active
14,CCCCCCCC(=O)O[C@@H]1[C@H](OC[C@@H](O)[C@@H](O)[C@H](O)[C@H](O)CO)O[C@H](COC(=O)CCC)[C@@H](OC(=O)CCC)[C@@H]1OC(=O)CCC,Active
15,CCCCCCCC(=O)O[C@@H]1[C@H](OC[C@@H](O)[C@@H](O)[C@H](O)[C@H](O)CO)O[C@H](COC(=O)CCCC)[C@@H](OC(=O)CCCC)[C@@H]1OC(=O)CCCC,Active
16,CCCCCCCC(=O)OC[C@H]1O[C@@H](OC[C@@H](O)[C@@H](O)[C@H](O)[C@H](O)CO)[C@@H](OC(=O)CCCCCCC)[C@@H](OC(=O)CCCCCCC)[C@@H]1OC(=O)CCCCCCC,Active
17,CCCCCCCC(=O)O[C@@H]1[C@H](OC[C@@H](O)[C@@H](O)[C@H](O)[C@H](O)CO)O[C@H](COC(=O)CCCCC)[C@@H](OC(=O)CCCCC)[C@@H]1O,inactive
18,CCCCCC(=O)OC[C@H]1O[C@@H](OC[C@@H](O)[C@@H](O)[C@H](O)[C@H](O)CO)[C@@H](OC(=O)CCCCC)[C@@H](OC(=O)CCCCC)[C@@H]1OC(=O)CCCCC,Active
19,CCCCCCCCC(=O)O[C@@H]1[C@H](OC[C@@H](O)[C@@H](O)[C@H](O)[C@H](O)CO)O[C@H](COC(=O)CCCCC)[C@@H](OC(=O)CCCCC)[C@@H]1OC(=O)CCCCC,Active
20,CCCCC(=O)OC[C@H]1O[C@@H](OC[C@@H](O)[C@@H](O)[C@H](O)[C@H](O)CO)[C@@H](OC(=O)CCCC)[C@@H](OC(=O)CCCC)[C@@H]1OC(=O)CCCC,Active
21,CCCCCCCCCCCCCCCC(=O)O[C@@H]1[C@H](OC[C@@H](O)[C@@H](O)[C@H](O)[C@H](O)CO)O[C@H](COC(=O)CCCCC)[C@@H](OC(=O)CCCCC)[C@@H]1OC(=O)CCCCC,Active
22,CCCCCCCC(=O)O[C@@H]1[C@H](OC[C@@H](O)[C@@H](O)[C@H](O)[C@H](O)CO)O[C@H](COC(=O)CC)[C@@H](OC(=O)CC)[C@@H]1OC(=O)CC,Active
23,CCCCCCC(=O)OC[C@H]1O[C@@H](OC[C@@H](O)[C@@H](O)[C@H](O)[C@H](O)CO)[C@@H](OC(=O)CCCCCC)[C@@H](OC(=O)CCCCCC)[C@@H]1OC(=O)CCCCCC,Active
24,CCCCCCC(=O)O[C@@H]1[C@H](OC[C@@H](O)[C@@H](O)[C@H](O)[C@H](O)CO)O[C@H](COC(=O)CCCCC)[C@@H](OC(=O)CCCCC)[C@@H]1OC(=O)CCCCC,Active

# Source: ChEMBL document CHEMBL4715725, “Structure-activity relationship studies on acremomannolipin A, the potent calcium signal modulator with a novel glycolipid structure 4: Role of acyl side chains on d-mannose” (Eur J Med Chem, 2016)
